Consider four compounds from US11071737B2, “Drug inclusion complex, preparation thereof, and preparation method thereof” (priority 2015, dated 2021).

Data set [1] is described as follows: Inclusion ability of different concentrations and kinds of cyclodextrins for encapsulating API. As for the experimental part:
Different kinds of cyclodextrins were dissolved with a pH 1.2 aqueous hydrochloric acid solution (0.1N) to determine the saturation concentration of each cyclodextrin.
(1) A certain amount of α-, β- and γ-cyclodextrin were weighed and added into a 10 mL volumetric flask, then added aqueous hydrochloric acid solution of pH 1.2 gradually until reaching the scale of the flask, shocked and performed ultrasound to dissolve the cyclodextrin. The maximum amount of cyclodextrin capable of being dissolved in a 10 mL solution was recorded.
(2) 8% α-cyclodextrin solution, 1% β-cyclodextrin solution, 20% γ-cyclodextrin solution, 20%, 30%, and 40% sulfobutyl ether-β-cyclodextrin solution and 20%, 30%, and 40% hydroxypropyl-β-cyclodextrin solution were formulated with hydrochloric acid aqueous solution of pH 1.2.
A certain amount of API was weighed and added into an appropriate volume of the cyclodextrin solution. If API was completely dissolved, the solution was filtered with a 0.45 μm PTFE filter membrane, and pH was slowly adjusted to 4.0 with a 5N NaOH aqueous solution and a 0.1N NaOH aqueous solution, observing during the pH adjusting procedure. If the solution becomes turbid when adjusting the pH, try to reduce the concentration of API. The clear solution after the pH adjustment was left to stand to observe the state of the solution after standing for 2 hours, 4 hours, and 24 hours.

Data set [2] is described as follows: Formulation of drug-containing HP-β-CD solutions (concentration by HPLC, observation on standing). The conditions noted are these: 21 mg/ml added to 30% HP-β-CD solution pH 1.2, not completely dissolved, 0.45 μm PES filter.
Procedure: The drug was dissolved completely by ultrasound (ultrasonic frequency was 59 kHz).
4. pH adjustment: The pH of the drug solution was adjusted to about 6.0 with 5N NaOH aqueous solution and 0.1 N NaOH aqueous solution.

The structures appear in SMILES notation.

As to `O=C(Cc1ccc(-c2ccc(N3CCOCC3)cc2)cn1)NCc1cccc(F)c1.O=S(=O)(O)c1ccccc1` [KX2-361.benzene sulfonate], the “Solution phenomenon when pH is adjusted to 4” value in data set [1] (API 0.5 mg/ml in 20% γ-CD (174:1)) is on record as “turbid”. For the same compound, the “concentration after filtering, calibrated with HPLC” value in data set [2] was 20660 µg/mL. As to `OC[C@H]1O[C@@H]2O[C@H]3[C@H](O)[C@@H](O)[C@@H](O[C@H]4[C@H](O)[C@@H](O)[C@@H](O[C@H]5[C@H](O)[C@@H](O)[C@@H](O[C@H]6[C@H](O)[C@@H](O)[C@@H](O[C@H]7[C@H](O)[C@@H](O)[C@@H](O[C@H]1[C@H](O)[C@H]2O)O[C@@H]7CO)O[C@@H]6CO)O[C@@H]5CO)O[C@@H]4CO)O[C@@H]3CO` [α-cyclodextrin], the “maximum solubility in aqueous hydrochloric acid solution of pH 1.2” value in data set [1] (% (w/v), 10 mL) was “about 8%”. Consider `OC[C@H]1O[C@@H]2O[C@H]3[C@H](O)[C@@H](O)[C@@H](O[C@H]4[C@H](O)[C@@H](O)[C@@H](O[C@H]5[C@H](O)[C@@H](O)[C@@H](O[C@H]6[C@H](O)[C@@H](O)[C@@H](O[C@H]7[C@H](O)[C@@H](O)[C@@H](O[C@H]8[C@H](O)[C@@H](O)[C@@H](O[C@H]1[C@H](O)[C@H]2O)O[C@@H]8CO)O[C@@H]7CO)O[C@@H]6CO)O[C@@H]5CO)O[C@@H]4CO)O[C@@H]3CO` [β-cyclodextrin], for which the “maximum solubility in aqueous hydrochloric acid solution of pH 1.2” value in data set [1] (pH 1.2) is “about 1%”. Still for that read-out and setting: for `OC[C@H]1O[C@@H]2O[C@H]3[C@H](O)[C@@H](O)[C@@H](O[C@H]4[C@H](O)[C@@H](O)[C@@H](O[C@H]5[C@H](O)[C@@H](O)[C@@H](O[C@H]6[C@H](O)[C@@H](O)[C@@H](O[C@H]7[C@H](O)[C@@H](O)[C@@H](O[C@H]8[C@H](O)[C@@H](O)[C@@H](O[C@H]9[C@H](O)[C@@H](O)[C@@H](O[C@H]1[C@H](O)[C@H]2O)O[C@@H]9CO)O[C@@H]8CO)O[C@@H]7CO)O[C@@H]6CO)O[C@@H]5CO)O[C@@H]4CO)O[C@@H]3CO` [γ-cyclodextrin] the value was “about 20%”.
